Test results published in patent US20130039852A1, “METHODS OF TARGETING CELLS FOR DIAGNOSIS AND THERAPY” (NORTHEASTERN UNIVERSITY, priority 2008, published 2013).
Converted amounts (≈) assume the structure as drawn.

What was measured:
[1] = tested on: anti-Bombesin antibody; experiment: ELISA for bispecificity using anti-Bombesin capture antibody and DTPA-HRP; assay type: binding; conditions: 1 μg/ml, captured by anti-Bombesin antibody
Method: Intact 6C31H3 anti-DTPA antibody was modified with 100× molar excess iminothiolane. Bombesin was modified with 24× molar excess N-hydroxy-succinimide ester of bromoacetic acid (as described in Varvarigou et al., Can. Biother. Radiopharm. 19:219-229 (2004); and Bernatowicz et al., Anal. Biochem. 155:95-102 (1986)). […] The antibody activity and Bombesin concentrations were assessed by ELISA using either DTPA-BSA or anti-Bombesin antibody and compared to standard curves. Specifically, the Bombesin concentration of serial dilutions of Bom-BiSpCx starting at 1 μg/ml was determined by ELISA using Bombesin (1 μg/ml) and 6C31H3 antibody (1 μg/ml) as controls. Bombesin of the Bom-BiSpCx (1 μg/ml) was captured by an anti-Bombesin antibody, resulting in a positive reaction with DTPA-HRP (which is specific for the […] antibody of the Bom-BiSpCx).

[2] = tested on: H9C2 embryonic rat cardiocytes; experiment: IC50 in H9C2 embryonic cardiocytes, Trypan Blue exclusion; assay type: cell-based; conditions: 24 hr
Method: H9C2 embryonic rat cardiocytes cultured in 10% Fetal Clone DMEM (F-DMEM) at 37° C. in 25 ml sterile culture flasks until 90% confluent in triplicate were dissociated by Trypsin digestion. The cells were washed in F-DMEM. Aliquots of 40,000 H9C2 cells in 1 ml F-DMEM were delivered to each well of a 6 well culture plate. After incubation for 24 hr, the culture medium was removed and fresh medium containing 2.5 μg/ml, 5 μg/ml, 10 μg/ml, 15 μg/ml, and 30 μg/ml of Dox-DPG or free Dox were added and incubated at 37° C. for 24 hr. Cell death was assessed by Trypan Blue exclusion test.

[3] = tested on: PC-3 cancer cells; experiment: In vitro therapeutic efficacy in PC-3 cell cultures; assay type: cell-based, human; conditions: 10 μg Bom-BiSpCx 24 hr then 10 μg/ml Dox-DPG, or 10 μg/ml free Dox; Trypan blue
Method: PC-3 cancer cells were grown in 10% fetal clone-DMEM until they reached about 80% confluence. The cells were then harvested by trypsin digestion and re-plated in 6 well culture plates at 40,000 cells per well. After attaining 70% confluency, the medium was replaced with or without 10 μg of Bom-BiSpCx (prepared as described in Example 3) in triplicates to quadruplicates. After 24 hr of incubation at 37° C. in 5% CO2, the media was changed to media containing 10 μg/ml of free Dox or Dox-DPG (prepared as described in Example 2). The cells were further incubated at 37° C. for 0-3 hr, 3-12 hr, or 12-24 hr, at which time the cells in each well were collected and the number of live and dead cells determined by Trypan blue exclusion test in a Hemocytometer. Negative control cells were treated with monospecific 2C5 antibody, […] antibody, Bombesin, or culture media alone. Positive control cells were treated with 10 μg/ml of free Dox. Each assay was repeated at least 3 times in triplicate or quadruplicate.

[4] = tested on: BT-20 human mammary tumor cells; experiment: In vitro assay for tumorotoxicity in BT-20 human mammary tumor cells; assay type: cell-based; conditions: BT-20 cells, 10 μg/ml, 3 hrs; compared with Dox-DPG and Dox-DPG-BiSpAb
Method: BT-20 human mammary tumor cells were grown in 10% Fetal Clone DEME. When the cells reached about 80% confluence, the cells were harvested by trypsin digestion and replated in […] culture plates at 400,000 cells per well. After 24 hrs, the culture media was removed and in one set of wells was replaced with media containing 10 μg/ml of 2C5-6C31H3 BiSpAb (prepared as described in Example 1). In two other sets, the media was replaced with media lacking 2C5-6C31H3 BiSpAb. Each set was prepared in triplicate. After 24 hrs of incubation, the medium was removed and washed 3× with medium lacking antibody. Medium containing 10 μg/ml of free Dox was then added to a medium-only set of wells, and media containing 10 μg/ml of Dox-DPG was added to one set with and one set without 2C5-6C31H3 BiSpAb. The cultures were incubated for either 3 hrs, 12 hrs, or 24 hrs, at which times the cells in the media were collected and viability was determined by counting cells with Tryptan Blue exclusion criteria in a hemocytometer.

| Structure (SMILES) | Reaction with DTPA-HRP, O.D. 490 nm [1] | IC50 (cardiotoxicity) [2] | Death of PC-3 cancer cells [3] | Tumor cell killing, early stage of incubation [4] |
| --- | --- | --- | --- | --- |
| O=C(O)CN(CCN(CC(=O)O)CC(=O)O)CCN(CC(=O)O)CC(=O)O [DTPA, diethylene triaminepentaacetic acid] | 0.0007±0.0025 | – | – | – |
| COc1cccc2c1C(=O)c1c(O)c3c(c(O)c1C2=O)C[C@@](O)(C(=O)CO)C[C@@H]3O[C@H]1C[C@H](N)[C@H](O)[C@H](C)O1 [doxorubicin] | – | 1.02 µg/mL (≈ 1.88 µM) | 68.6% | more effective in killing tumor cells |
